Measurements as given in PubChem BioAssay (NCI).
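Cultured in 96-well plates, cells were exposed to test compound for 48 hours across five concentrations. TGI marks complete inhibition of growth.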

Columns and labels:
Test in all cases: NCI tumour cell line growth inhibition, 48 h
NCI-H226 lung = system: NCI-H226 lung
SF-295 CNS = system: SF-295 CNS
SK-MEL-2 melanoma = system: SK-MEL-2 melanoma
HT29 colon = system: HT29 colon
UO-31 renal = system: UO-31 renal
HCT-15 colon = system: HCT-15 colon
HCC-2998 colon = system: HCC-2998 colon
OVCAR-3 ovarian = system: OVCAR-3 ovarian
COLO 205 colon = system: COLO 205 colon
NCI-H522 lung = system: NCI-H522 lung
SK-OV-3 ovarian = system: SK-OV-3 ovarian
HCT-116 colon = system: HCT-116 colon
NCI-H23 lung = system: NCI-H23 lung
CCRF-CEM leukemia = system: CCRF-CEM leukemia
MOLT-4 leukemia = system: MOLT-4 leukemia
U251 CNS = system: U251 CNS
786-0 renal = system: 786-0 renal
SF-268 CNS = system: SF-268 CNS
RPMI-8226 leukemia = system: RPMI-8226 leukemia
M14 melanoma = system: M14 melanoma
IGROV1 ovarian = system: IGROV1 ovarian
MCF7 breast = system: MCF7 breast
A549 NSCLC = system: A549 NSCLC
OVCAR-4 ovarian = system: OVCAR-4 ovarian
SF-539 CNS = system: SF-539 CNS
HOP-92 NSCLC = system: HOP-92 NSCLC
OVCAR-8 ovarian = system: OVCAR-8 ovarian
ACHN renal = system: ACHN renal
DU-145 prostate = system: DU-145 prostate
MDA-MB-435 = system: MDA-MB-435
UACC-62 melanoma = system: UACC-62 melanoma
CAKI-1 renal = system: CAKI-1 renal
NCI/ADR-RES ovarian = system: NCI/ADR-RES ovarian
OVCAR-5 ovarian = system: OVCAR-5 ovarian
SW-620 colon = system: SW-620 colon
SR leukemia = system: SR leukemia
BT-549 breast = system: BT-549 breast
EKVX NSCLC = system: EKVX NSCLC
HL-60(TB) leukemia = system: HL-60(TB) leukemia
PC-3 prostate = system: PC-3 prostate
UACC-257 melanoma = system: UACC-257 melanoma
MALME-3M melanoma = system: MALME-3M melanoma
SN12C renal = system: SN12C renal
SNB-19 CNS = system: SNB-19 CNS
A498 renal = system: A498 renal
SK-MEL-28 melanoma = system: SK-MEL-28 melanoma
KM12 colon = system: KM12 colon
LOX IMVI melanoma = system: LOX IMVI melanoma
RXF 393 renal = system: RXF 393 renal
TK-10 renal = system: TK-10 renal
HOP-62 NSCLC = system: HOP-62 NSCLC
SNB-75 CNS = system: SNB-75 CNS
MDA-N = system: MDA-N
MDA-MB-231 breast = system: MDA-MB-231 breast
K-562 leukemia = system: K-562 leukemia
NCI-H460 lung = system: NCI-H460 lung
T-47D breast = system: T-47D breast
HS 578T breast = system: HS 578T breast
SK-MEL-5 melanoma = system: SK-MEL-5 melanoma

Measured: TGI

OC(COc1ccccc1)CN1CCCCC1 (centres undefined)
> 100 µM: NCI-H226 lung | SF-295 CNS | SK-MEL-2 melanoma | HT29 colon | UO-31 renal | HCT-15 colon | HCC-2998 colon | OVCAR-3 ovarian | COLO 205 colon | NCI-H522 lung | SK-OV-3 ovarian | HCT-116 colon | NCI-H23 lung | CCRF-CEM leukemia | MOLT-4 leukemia | U251 CNS | 786-0 renal | SF-268 CNS | RPMI-8226 leukemia | M14 melanoma | IGROV1 ovarian | MCF7 breast | A549 NSCLC | OVCAR-4 ovarian | SF-539 CNS | HOP-92 NSCLC | OVCAR-8 ovarian | ACHN renal | DU-145 prostate | MDA-MB-435 | UACC-62 melanoma | CAKI-1 renal | NCI/ADR-RES ovarian | OVCAR-5 ovarian | SW-620 colon | SR leukemia | BT-549 breast | EKVX NSCLC | HL-60(TB) leukemia | PC-3 prostate | UACC-257 melanoma | MALME-3M melanoma | SN12C renal | SNB-19 CNS | A498 renal | SK-MEL-28 melanoma | KM12 colon | LOX IMVI melanoma | RXF 393 renal | TK-10 renal | HOP-62 NSCLC | SNB-75 CNS | MDA-N | MDA-MB-231 breast | K-562 leukemia | NCI-H460 lung | T-47D breast | HS 578T breast | SK-MEL-5 melanoma
